Measured values published in US9994551B2, “Pyridazine derivatives as RORc modulators” (Genentech, Inc., priority 2015, dated 2018).

Biological target: T1, RORc ligand binding domain (Homo sapiens, UniProt P51449)
T1 construct: host or cells: E. coli
T1 sequence (P51449 269-508 limits assumed): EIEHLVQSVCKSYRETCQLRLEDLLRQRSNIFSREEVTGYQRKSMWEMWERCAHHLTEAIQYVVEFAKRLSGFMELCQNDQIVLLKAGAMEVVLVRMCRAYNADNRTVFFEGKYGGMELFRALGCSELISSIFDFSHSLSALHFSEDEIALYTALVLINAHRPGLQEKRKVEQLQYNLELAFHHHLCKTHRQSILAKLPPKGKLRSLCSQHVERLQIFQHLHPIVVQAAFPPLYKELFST
Assay: In vitro RORc ligand binding assay (25-[3H]hydroxycholesterol displacement, filter binding)
Method: This assay was used to determine a compound's potency in inhibiting activity of RORc by determining, Kiapp, IC50, or percent inhibition values.
On day of the assay, 100 uL of 0.05% CHAPS (in deionized H2O) was added to all wells of the GFB Unifilter plate and allowed soak for 1 h. A wash buffer of 50 mM HEPES (pH 7.4), 150 mM NaCl, and 5 mM MgCl2 was prepared to wash the filter plate. To prepare an assay buffer, BSA was added to the wash buffer to reach 0.01% and DTT was added to reach 1 mM.
The 20× compound stocks were diluted in DMSO with Assay Buffer 4-fold to reach 5× the final test concentration in 25% DMSO (10 uL compound+30 uL Assay Buffer). Solutions were mixed by aspiration several times with a pipette set on 50 uL volume. For the assay, 10 uL of 5× compound stock solutions in 25% DMSO were added to the assay plate in duplicate.
For two point screening, 10 mM stock compound solutions were diluted in DMSO to obtain 200 uM (20× the high test concentration) and then diluted 10-fold further to reach 20 uM (20× the low test concentration). The 20× stocks were diluted 4-fold with Assay Buffer (10 uL compound+30 uL Assay Buffer) to reach 5× the test concentrations (50 uM and 5 uM) and 10 uL were added to two assay plates for the duplicate wells. With each concentration tested on 2 plates, each set of 80 compounds used 4 assay plates (1 uM and 10 uM, with n=2).
For 25-hydroxycholesterol in 25% DMSO/75% Assay Buffer; 10 uL per well was used for NSB samples. Wells for Total Binding and No Receptor sample determination contained 10 uL of 25% DMSO/75% Assay Buffer per well.
Add 20 uL to all wells to reach 6 nM final concentration in the assay.
Stock receptor solution was diluted in assay buffer to obtain 1.5 ug/mL in Assay Buffer. 20 uL was added to all wells. For No Receptor samples, 20 uL Assay Buffer was substituted for receptor solution.
Assay plates were 96-well polypropylene V-bottom plates. 10 uL of 5× compound in 25% DMSO/75% Assay Buffer was added to Test wells. 10 uL of 25% DMSO/75% Assay Buffer was added to Total Binding or No Receptor wells. 10 uL of 5 uM 25-hydroxycholesterol in 25% DMSO/75% Assay Buffer was added to NSB wells. […] 20 uL of 1.5 ug/mL RORc receptor was added to wells (or 40 uL Assay Buffer to No R wells). Following addition to the wells, the plates were incubated 3 h at 25° C.
Using a Packard Filtermate Harvester, the filter plate were washed 4 times following transfer of the incubated samples. Plates were dry-filtered completely (2 h at 50° C. or overnight at room temperature). 50 uL Microscint 0 was added to all wells and read on Topcount protocol Inverted.

Row | IC50 | Structure (SMILES)
1 | 118 nM | CC1(C)[C@H]2CC[C@]1(OCC(N)=O)c1nnc(-c3c(F)cccc3F)cc12 [Compound 47, 2-(((5S,8R)-3-(2,6-difluorophenyl)-9,9-dimethyl-5,6,7,8-tetrahydro-5,8-methanocinnolin-8-yl)oxy)acetamide]
2 | 47 nM | CC[C@@H](O[C@]12CC[C@H](c3cc(-c4c(F)cccc4F)nnc31)C2(C)C)C(=O)O [Compound 113, (2R)-2-[[(1S,8R)-5-(2,6-difluorophenyl)-11,11-dimethyl-3,4-diazatricyclo[6.2.1.02,7]undeca-2,4,6-trien-1-yl]oxy]butanoic acid]
3 | 15.4 nM | CCC[C@@H](O[C@@]12CC[C@@H](c3cc(-c4c(F)cccc4F)nnc31)C2(C)C)C(N)=O [Compound 49, (R)-2-(((5S,8R)-3-(2,6-difluorophenyl)-9,9-dimethyl-5,6,7,8-tetrahydro-5,8-methanocinnolin-8-yl)oxy)pentanamide]
4 | 67 nM | CC1(C)[C@H]2CC[C@]1(Oc1cccnc1)c1nnc(-c3c(F)cccc3F)cc12 [Compound 27, (5S,8R)-3-(2,6-difluorophenyl)-9,9-dimethyl-8-(pyridin-3-yloxy)-5,6,7,8-tetrahydro-5,8-methanocinnoline]
5 | 50.1 nM | CC[C@@H](O[C@@]12CC[C@@H](c3cc(-c4c(F)cccc4F)nnc31)C2(C)C)c1nc[nH]n1 [Compound 40, (5S,8R)-8-((R)-1-(1H-1,2,4-triazol-3-yl)propoxy)-3-(2,6-difluorophenyl)-9,9-dimethyl-5,6,7,8-tetrahydro-5,8-methanocinnoline]
6 | 34.7 nM | CCNC(=O)[C@H](CC)O[C@@]12CC[C@@H](c3cc(-c4c(F)cccc4F)nnc31)C2(C)C [Compound 19, (S)-2-(((5S,8R)-3-(2,6-difluorophenyl)-9,9-dimethyl-5,6,7,8-tetrahydro-5,8-methanocinnolin-8-yl)oxy)-N-ethylbutanamide]
7 | 4 nM | CC[C@@H](O[C@@]12CC[C@@H](c3cc(-c4c(F)cccc4F)nnc31)C2(C)C)c1nc(COC)no1 [Compound 41, 5-((R)-1-(((5S,8R)-3-(2,6-difluorophenyl)-9,9-dimethyl-5,6,7,8-tetrahydro-5,8-methanocinnolin-8-yl)oxy)propyl)-3-(methoxymethyl)-1,2,4-oxadiazole]
8 | 827 nM | CC[C@@H](O[C@@]12CC[C@@H](c3cc(-c4c(F)cccc4F)nnc31)C2(C)C)c1n[nH]c(CO)n1 [Compound 39, (3-((R)-1-(((5S,8R)-3-(2,6-difluorophenyl)-9,9-dimethyl-5,6,7,8-tetrahydro-5,8-methanocinnolin-8-yl)oxy)propyl)-1H-1,2,4-triazol-5-yl)methanol]

Continued, compound first:

Row | Structure (SMILES) | IC50
9 | CN(C)C(=O)N1CCO[C@H]([C@@]23CC[C@@H](c4cc(-c5c(F)cccc5F)nnc42)C3(C)C)C1 [Compound 86, (R)-2-((5R,8R)-3-(2,6-difluorophenyl)-9,9-dimethyl-5,6,7,8-tetrahydro-5,8-methanocinnolin-8-yl)-N,N-dimethylmorpholine-4-carboxamide] | 473 nM
10 | CN1CCO[C@@H]([C@@]23CC[C@@H](c4cc(-c5c(F)cccc5F)nnc42)C3(C)C)C1 [Compound 71, (S)-2-((5R,8R)-3-(2,6-difluorophenyl)-9,9-dimethyl-5,6,7,8-tetrahydro-5,8-thanocinnolin-8-yl)-4-methylmorpholine] | 375 nM
11 | CN1CCN(C)[C@H]([C@@]23CC[C@@H](c4cc(-c5c(F)cccc5F)nnc42)C3(C)C)C1 [Compound 180, 5-(2,6-difluorophenyl)-1-(1,4-dimethylpiperazin-2-yl)-11,11-dimethyl-3,4-diazatricyclo[6.2.1.02,7]undeca-2,4,6-triene] | 16 nM
12 | CC[C@@H](O[C@@]12CC[C@@H](c3cc(-c4c(F)cccc4F)nnc31)C2(C)C)C(=O)N1CCCOCC1 [Compound 101, (R)-2-(((5S,8R)-3-(2,6-difluorophenyl)-9,9-dimethyl-5,6,7,8-tetrahydro-5,8-methanocinnolin-8-yl)oxy)-1-(1,4-oxazepan-4-yl)butan-1-one] | 148 nM
13 | CC1(C)C2CCC1(C1CCCN(C(=O)c3cnoc3)C1)c1nnc(-c3c(F)cccc3F)cc12 (stereo not drawn) [Compound 160, [3-[5-(2,6-difluorophenyl)-11,11-dimethyl-3,4-diazatricyclo[6.2.1.02,7]undeca-2,4,6-trien-1-yl]-1-piperidyl]-isoxazol-4-yl-methanone] | 200 nM
14 | CNC(=O)N1CCO[C@@H]([C@@]23CC[C@@H](c4cc(-c5c(F)cccc5F)nnc42)C3(C)C)C1 [Compound 74, (S)-2-((5R,8R)-3-(2,6-difluorophenyl)-9,9-dimethyl-5,6,7,8-tetrahydro-5,8-methanocinnolin-8-yl)-N-methylmorpholine-4-carboxamide] | 24 nM
15 | CC1(C)[C@H]2CC[C@]1(C1CCC(=O)NC1)c1nnc(-c3c(F)cccc3F)cc12 (stereo partly drawn) [Compound 116, 5-[5-(2,6-difluorophenyl)-11,11-dimethyl-3,4-diazatricyclo[6.2.1.02,7]undeca-2,4,6-trien-1-yl]piperidin-2-one] | 74 nM
16 | CNC(=O)c1nnc([C@@]23CC[C@@H](c4cc(-c5c(F)cccc5F)nnc42)C3(C)C)o1 [Compound 3, 5-((5R,8R)-3-(2,6-difluorophenyl)-9,9-dimethyl-5,6,7,8-tetrahydro-5,8-methanocinnolin-8-yl)-N-methyl-1,3,4-oxadiazole-2-carboxamide] | 283 nM
17 | CC1(C)[C@H]2CC[C@]1([C@H]1CCCN(C(=O)c3cocn3)C1)c1nnc(-c3c(F)cccc3F)cc12 [Compound 122, [3-[5-(2,6-difluorophenyl)-11,11-dimethyl-3,4-diazatricyclo[6.2.1.02,7]undeca-2,4,6-trien-1-yl]-1-piperidyl]-oxazol-4-yl-methanone] | 21 nM
18 | CC1(C)[C@H]2CC[C@]1(OS(=O)(=O)C(F)(F)F)c1nnc(-c3c(F)cccc3F)cc12 [Compound 6, (5S,8R)-3-(2,6-difluorophenyl)-9,9-dimethyl-5,6,7,8-tetrahydro-5,8-methanocinnolin-8-yl trifluoromethanesulfonate] | 6 nM
19 | CC1(C)[C@H]2CC[C@]1([C@@H]1CN(C(=O)CO)CCO1)c1nnc(-c3c(F)cccc3F)cc12 [Compound 75, 1-((R)-2-((5R,8R)-3-(2,6-difluorophenyl)-9,9-dimethyl-5,6,7,8-tetrahydro-5,8-methanocinnolin-8-yl)morpholino)-2-hydroxyethanone] | 234 nM
20 | CC1(C)[C@H]2CC[C@]1([C@H]1CCCN(c3ccncn3)C1)c1nnc(-c3c(F)cccc3F)cc12 [Compound 164, 5-(2,6-difluorophenyl)-11,11-dimethyl-1-(1-pyrimidin-4-yl-3-piperidyl)-3,4-diazatricyclo[6.2.1.02,7]undeca-2,4,6-triene] | 20 nM
21 | Cc1n[nH]c(N2CCO[C@@H]([C@@]34CC[C@@H](c5cc(-c6c(F)cccc6F)nnc53)C4(C)C)C2)n1 [Compound 93, (S)-2-((5R,8R)-3-(2,6-difluorophenyl)-9,9-dimethyl-5,6,7,8-tetrahydro-5,8-methanocinnolin-8-yl)-4-(3-methyl-1H-1,2,4-triazol-5-yl)morpholine] | 191 nM
22 | CC1(C)[C@H]2CC[C@]1([C@H]1CCCN(c3ccccn3)C1)c1nnc(-c3c(F)cccc3F)cc12 [Compound 163, 5-(2,6-difluorophenyl)-11,11-dimethyl-1-[1-(2-pyridyl)-3-piperidyl]-3,4-diazatricyclo[6.2.1.02,7]undeca-2,4,6-triene] | 27 nM
23 | CC1(C)[C@H]2CC[C@]1([C@@H]1CN(c3ccccn3)CCO1)c1nnc(-c3c(F)cccc3F)cc12 [Compound 79, (R)-2-((5R,8R)-3-(2,6-difluorophenyl)-9,9-dimethyl-5,6,7,8-tetrahydro-5,8-methanocinnolin-8-yl)-4-(pyridin-2-yl)morpholine] | 412 nM
24 | CC1(C)[C@H]2CC[C@]1([C@H]1CCCN(c3cc[nH]c(=O)c3)C1)c1nnc(-c3c(F)cccc3F)cc12 [Compound 172, 4-[3-[5-(2,6-difluorophenyl)-11,11-dimethyl-3,4-diazatricyclo[6.2.1.02,7]undeca-2,4,6-trien-1-yl]-1-piperidyl]-1H-pyridin-2-one] | 20 nM
